± gives the expanded uncertainty stated by the source.
Experiment: xn = mol fraction of the nth substance listed
Conditions: 101 kPa, Liquid; for speed of sound: Sing-around technique in a fixed-path interferometer; for mass density: Vibrating tube method

## CCCCCCCCCCCC[n+]1ccn(C)c1.[Cl-] [1-dodecyl-3-methylimidazolium chloride] + O
298 K, x1 = 0.0428
  speed of sound: 1500.7 ± 1.2 m/s
298 K, x1 = 2.7e-05
  mass density: 997.065 ± 0.1 kg/m3
298 K, x1 = 3e-05
  mass density: 997.081 ± 0.1 kg/m3
298 K, x1 = 4.8e-05
  mass density: 997.081 ± 0.1 kg/m3
298 K, x1 = 7.4e-05
  mass density: 997.07 ± 0.1 kg/m3
298 K, x1 = 9.4e-05
  mass density: 997.061 ± 0.1 kg/m3
298 K, x1 = 0.000109
  mass density: 997.064 ± 0.1 kg/m3
298 K, x1 = 0.000129
  mass density: 997.078 ± 0.1 kg/m3
298 K, x1 = 0.000145
  mass density: 997.058 ± 0.1 kg/m3
298 K, x1 = 0.000163
  mass density: 997.076 ± 0.1 kg/m3
298 K, x1 = 0.000181
  mass density: 997.056 ± 0.1 kg/m3
298 K, x1 = 0.000208
  mass density: 997.055 ± 0.1 kg/m3
298 K, x1 = 0.000234
  mass density: 997.049 ± 0.1 kg/m3
298 K, x1 = 0.000248
  mass density: 997.059 ± 0.1 kg/m3
298 K, x1 = 0.000273
  mass density: 997.045 ± 0.1 kg/m3
298 K, x1 = 0.000286
  mass density: 997.042 ± 0.1 kg/m3
298 K, x1 = 0.000302
  mass density: 997.023 ± 0.1 kg/m3
298 K, x1 = 0.000319
  mass density: 997.039 ± 0.1 kg/m3
298 K, x1 = 0.000341
  mass density: 997.023 ± 0.1 kg/m3
298 K, x1 = 0.000384
  mass density: 997.011 ± 0.1 kg/m3
298 K, x1 = 0.000407
  mass density: 996.995 ± 0.1 kg/m3
298 K, x1 = 0.000428
  mass density: 996.98 ± 0.11 kg/m3
303 K, x1 = 0.0027
  speed of sound: 1509.5 ± 1.2 m/s
303 K, x1 = 0.003
  speed of sound: 1509.5 ± 1.2 m/s
303 K, x1 = 0.0048
  speed of sound: 1509.8 ± 1.2 m/s
303 K, x1 = 0.0074
  speed of sound: 1510.1 ± 1.2 m/s
303 K, x1 = 0.0094
  speed of sound: 1510.4 ± 1.2 m/s
303 K, x1 = 0.0109
  speed of sound: 1510.6 ± 1.2 m/s
303 K, x1 = 0.0129
  speed of sound: 1510.8 ± 1.2 m/s
303 K, x1 = 0.0145
  speed of sound: 1511 ± 1.2 m/s
303 K, x1 = 0.0163
  speed of sound: 1511.2 ± 1.2 m/s
303 K, x1 = 0.0181
  speed of sound: 1511.4 ± 1.2 m/s
303 K, x1 = 0.0208
  speed of sound: 1511.8 ± 1.2 m/s
303 K, x1 = 0.0234
  speed of sound: 1512 ± 1.2 m/s
303 K, x1 = 0.0248
  speed of sound: 1512.1 ± 1.2 m/s
303 K, x1 = 0.0273
  speed of sound: 1512.3 ± 1.2 m/s
303 K, x1 = 0.0286
  speed of sound: 1512.3 ± 1.2 m/s
303 K, x1 = 0.0302
  speed of sound: 1512.4 ± 1.2 m/s
303 K, x1 = 0.0319
  speed of sound: 1512.5 ± 1.2 m/s
303 K, x1 = 0.0341
  speed of sound: 1512.6 ± 1.2 m/s
303 K, x1 = 0.0384
  speed of sound: 1512.5 ± 1.2 m/s
303 K, x1 = 0.0407
  speed of sound: 1512.7 ± 1.2 m/s
303 K, x1 = 0.0428
  speed of sound: 1512.7 ± 1.2 m/s
303 K, x1 = 2.7e-05
  mass density: 995.678 ± 0.1 kg/m3
303 K, x1 = 3e-05
  mass density: 995.688 ± 0.1 kg/m3
303 K, x1 = 4.8e-05
  mass density: 995.688 ± 0.1 kg/m3
303 K, x1 = 7.4e-05
  mass density: 995.68 ± 0.11 kg/m3
303 K, x1 = 9.4e-05
  mass density: 995.666 ± 0.1 kg/m3
303 K, x1 = 0.000109
  mass density: 995.667 ± 0.1 kg/m3
303 K, x1 = 0.000129
  mass density: 995.679 ± 0.1 kg/m3
303 K, x1 = 0.000145
  mass density: 995.66 ± 0.11 kg/m3
303 K, x1 = 0.000163
  mass density: 995.674 ± 0.1 kg/m3
303 K, x1 = 0.000181
  mass density: 995.656 ± 0.1 kg/m3
303 K, x1 = 0.000208
  mass density: 995.653 ± 0.1 kg/m3
303 K, x1 = 0.000234
  mass density: 995.647 ± 0.1 kg/m3
303 K, x1 = 0.000248
  mass density: 995.65 ± 0.11 kg/m3
303 K, x1 = 0.000273
  mass density: 995.635 ± 0.1 kg/m3
303 K, x1 = 0.000286
  mass density: 995.632 ± 0.1 kg/m3
303 K, x1 = 0.000302
  mass density: 995.606 ± 0.1 kg/m3
303 K, x1 = 0.000319
  mass density: 995.625 ± 0.1 kg/m3
303 K, x1 = 0.000341
  mass density: 995.608 ± 0.1 kg/m3
303 K, x1 = 0.000384
  mass density: 995.594 ± 0.1 kg/m3
303 K, x1 = 0.000407
  mass density: 995.571 ± 0.1 kg/m3
303 K, x1 = 0.000428
  mass density: 995.568 ± 0.1 kg/m3
308 K, x1 = 0.0027
  speed of sound: 1520.1 ± 1.2 m/s
308 K, x1 = 0.003
  speed of sound: 1520.2 ± 1.2 m/s
308 K, x1 = 0.0048
  speed of sound: 1520.4 ± 1.2 m/s
308 K, x1 = 0.0074
  speed of sound: 1520.7 ± 1.2 m/s
308 K, x1 = 0.0094
  speed of sound: 1521 ± 1.2 m/s
308 K, x1 = 0.0109
  speed of sound: 1521.1 ± 1.2 m/s
308 K, x1 = 0.0129
  speed of sound: 1521.3 ± 1.2 m/s
308 K, x1 = 0.0145
  speed of sound: 1521.5 ± 1.2 m/s
308 K, x1 = 0.0163
  speed of sound: 1521.7 ± 1.2 m/s
308 K, x1 = 0.0181
  speed of sound: 1521.9 ± 1.2 m/s
308 K, x1 = 0.0208
  speed of sound: 1522.2 ± 1.2 m/s
308 K, x1 = 0.0234
  speed of sound: 1522.4 ± 1.2 m/s
308 K, x1 = 0.0248
  speed of sound: 1522.5 ± 1.2 m/s
308 K, x1 = 0.0273
  speed of sound: 1522.7 ± 1.2 m/s
308 K, x1 = 0.0286
  speed of sound: 1522.8 ± 1.2 m/s
308 K, x1 = 0.0302
  speed of sound: 1522.8 ± 1.2 m/s
308 K, x1 = 0.0319
  speed of sound: 1522.9 ± 1.2 m/s
308 K, x1 = 0.0341
  speed of sound: 1523 ± 1.2 m/s
308 K, x1 = 0.0384
  speed of sound: 1522.8 ± 1.2 m/s
308 K, x1 = 0.0407
  speed of sound: 1523 ± 1.2 m/s
308 K, x1 = 0.0428
  speed of sound: 1523 ± 1.2 m/s
308 K, x1 = 2.7e-05
  mass density: 994.072 ± 0.1 kg/m3
308 K, x1 = 3e-05
  mass density: 994.075 ± 0.1 kg/m3
308 K, x1 = 4.8e-05
  mass density: 994.073 ± 0.1 kg/m3
308 K, x1 = 7.4e-05
  mass density: 994.068 ± 0.1 kg/m3
308 K, x1 = 9.4e-05
  mass density: 994.05 ± 0.11 kg/m3
308 K, x1 = 0.000109
  mass density: 994.047 ± 0.1 kg/m3
308 K, x1 = 0.000129
  mass density: 994.059 ± 0.1 kg/m3
308 K, x1 = 0.000145
  mass density: 994.046 ± 0.1 kg/m3
308 K, x1 = 0.000163
  mass density: 994.052 ± 0.1 kg/m3
308 K, x1 = 0.000181
  mass density: 994.039 ± 0.1 kg/m3
308 K, x1 = 0.000208
  mass density: 994.032 ± 0.1 kg/m3
308 K, x1 = 0.000234
  mass density: 994.027 ± 0.1 kg/m3
308 K, x1 = 0.000248
  mass density: 994.022 ± 0.1 kg/m3
308 K, x1 = 0.000273
  mass density: 994.008 ± 0.1 kg/m3
308 K, x1 = 0.000286
  mass density: 994.004 ± 0.1 kg/m3
308 K, x1 = 0.000302
  mass density: 993.979 ± 0.1 kg/m3
308 K, x1 = 0.000319
  mass density: 993.993 ± 0.1 kg/m3
308 K, x1 = 0.000341
  mass density: 993.986 ± 0.1 kg/m3
308 K, x1 = 0.000384
  mass density: 993.958 ± 0.1 kg/m3
308 K, x1 = 0.000407
  mass density: 993.935 ± 0.1 kg/m3
308 K, x1 = 0.000428
  mass density: 993.939 ± 0.1 kg/m3
313 K, x1 = 0.0027
  speed of sound: 1529.2 ± 1.2 m/s
313 K, x1 = 0.003
  speed of sound: 1529.2 ± 1.2 m/s
313 K, x1 = 0.0074
  speed of sound: 1529.7 ± 1.2 m/s
313 K, x1 = 0.0094
  speed of sound: 1530 ± 1.2 m/s
313 K, x1 = 0.0109
  speed of sound: 1530.1 ± 1.2 m/s
313 K, x1 = 0.0129
  speed of sound: 1530.3 ± 1.2 m/s
313 K, x1 = 0.0145
  speed of sound: 1530.4 ± 1.2 m/s
313 K, x1 = 0.0163
  speed of sound: 1530.6 ± 1.2 m/s
313 K, x1 = 0.0181
  speed of sound: 1530.8 ± 1.2 m/s
313 K, x1 = 0.0208
  speed of sound: 1531.1 ± 1.2 m/s
313 K, x1 = 0.0234
  speed of sound: 1531.3 ± 1.2 m/s
313 K, x1 = 0.0248
  speed of sound: 1531.4 ± 1.2 m/s
313 K, x1 = 0.0273
  speed of sound: 1531.5 ± 1.2 m/s
313 K, x1 = 0.0286
  speed of sound: 1531.6 ± 1.2 m/s
313 K, x1 = 0.0302
  speed of sound: 1531.6 ± 1.2 m/s
313 K, x1 = 0.0319
  speed of sound: 1531.7 ± 1.2 m/s
313 K, x1 = 0.0341
  speed of sound: 1531.8 ± 1.2 m/s
313 K, x1 = 0.0384
  speed of sound: 1531.6 ± 1.2 m/s
313 K, x1 = 0.0407
  speed of sound: 1531.8 ± 1.2 m/s
313 K, x1 = 0.0428
  speed of sound: 1531.8 ± 1.2 m/s
313 K, x1 = 2.7e-05
  mass density: 992.261 ± 0.11 kg/m3
313 K, x1 = 3e-05
  mass density: 992.046 ± 0.11 kg/m3
313 K, x1 = 7.4e-05
  mass density: 992.253 ± 0.11 kg/m3
313 K, x1 = 9.4e-05
  mass density: 992.137 ± 0.11 kg/m3
313 K, x1 = 0.000109
  mass density: 992.207 ± 0.11 kg/m3
313 K, x1 = 0.000129
  mass density: 992.221 ± 0.11 kg/m3
313 K, x1 = 0.000145
  mass density: 992.226 ± 0.11 kg/m3
313 K, x1 = 0.000163
  mass density: 992.224 ± 0.11 kg/m3
313 K, x1 = 0.000181
  mass density: 992.217 ± 0.11 kg/m3
313 K, x1 = 0.000208
  mass density: 992.206 ± 0.11 kg/m3
313 K, x1 = 0.000234
  mass density: 992.203 ± 0.11 kg/m3
313 K, x1 = 0.000248
  mass density: 992.194 ± 0.11 kg/m3
313 K, x1 = 0.000273
  mass density: 992.178 ± 0.11 kg/m3
313 K, x1 = 0.000286
  mass density: 992.177 ± 0.11 kg/m3
313 K, x1 = 0.000302
  mass density: 992.159 ± 0.11 kg/m3
313 K, x1 = 0.000319
  mass density: 992.158 ± 0.11 kg/m3
313 K, x1 = 0.000341
  mass density: 992.147 ± 0.11 kg/m3
313 K, x1 = 0.000384
  mass density: 992.121 ± 0.11 kg/m3
313 K, x1 = 0.000407
  mass density: 992.068 ± 0.11 kg/m3
313 K, x1 = 0.000428
  mass density: 992.103 ± 0.11 kg/m3
